Reference: US7642261B2, “Use of 1-[4-(5-cyanoindol-3-yl)butyl]-4-(2-carbamoyl-benzofuran-5-yl)-piperazine and its physiologically acceptable salts” (Merck Patent GmbH, priority 2002, dated 2010)

tested on: mice; assay: Marble Burying Test (model for OCSD including OCD); format: in vivo; details: dose equieffective to 3 mg/kg of the hydrochloride (92% inhibition)
Procedure: A typical model for OCSD including OCD is the Marble Burying Test according to Y. Ichimaru, T. Egawa, A. Sawa, Jpn. J. Pharmacol. 1995, 68: 65-70.
The apparatus consists of an open cubic box with 25 clean glass marbles evenly spaced on sawdust. Individual mice are placed in the test box, and the number of glass marbles left uncovered after 20 minutes are counted. 1-[4-(5-cyanoindol-3-yl)butyl]-4-(2-carbamoyl-benzofuran-5-yl)-piperazine or one of its physiologically acceptable salts, in particular 1-[4-(5-cyanoindol-3-yl)butyl]-4-(2-carbamoyl-benzofuran-5-yl)-piperazine hydrochloride, following subcutaneous application inhibits mable burying in mice dose-dependently. For example, a dose of 3 mg/kg of 1-[4-(5-cyanoindol-3-yl)butyl]-4-(2-carbamoyl-benzofuran-5-yl)-piperazine hydrochloride nearly completely (92%) inhibits marble burying; equieffective doses of conventional serotonin reuptake inhibitors are e.g. 20 mg/kg for fluvoxamine or 17 mg/kg for fluoxetine and an equieffective dose of the 5-HT1A agonist ipsapirone is 10 mg/kg.

Structure (SMILES)	equieffective dose for inhibition of marble burying [mg/kg]
CNCCC(Oc1ccc(C(F)(F)F)cc1)c1ccccc1 (stereo not drawn) [fluoxetine]	17
COCCCC/C(=N\OCCN)c1ccc(C(F)(F)F)cc1 [fluvoxamine]	20
O=C1c2ccccc2S(=O)(=O)N1CCCCN1CCN(c2ncccn2)CC1 [ipsapirone]	10
